Data taken from the supplement of paper PMC11451515.

Columns and labels:
Conditions in all cases: 48 h
[1] = tested on: SEM cells; test: AUC of viability dose-response curve (% viability x log10 dose units); higher = less sensitive
Procedure, shortened: (§1)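 Leukemia cells adapted to each medium were seeded in 1536-well plates (500 or 1000 cells/well) and given library compounds in DMSO for 48 h at 37°C. The 11 threefold doses spanned 47 μM to 0.79 nM, and CellTiter-Glo One luminescence was normalised per plate to DMSO and cell-free wells before four-parameter log-logistic fitting on log10 dose. Area under the curve was integrated with the trapezoidal rule, scaling curves above full viability and removing curves that failed quality control.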

[2] = tested on: P12-Ichikawa; test: as above
Procedure, shortened: as §1

[3] = tested on: NOMO1; test: as above
Procedure, shortened: as §1

[4] = tested on: SEM cells; test: cell viability relative to DMSO control; higher = less cytotoxic
Procedure, shortened: (§2)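 Cells were incubated for 48 h at 37°C before CellTiter-Glo One luminescence was read. The cells were NOMO1 or SEM (500 cells/well) or P12-Ichikawa (1000 cells/well) leukemia cells, adapted for at least four passages in each medium and seeded in 1536-well plates (5 μl). Dosing used library compounds in DMSO applied by pin over 11 threefold points, 47 μM to 0.79 nM. Viability is the per-plate percentage of DMSO wells, with cell-free wells as background.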

[5] = tested on: P12-Ichikawa; test: as above
Procedure, shortened: as §2

[6] = tested on: NOMO1; test: as above
Procedure, shortened: as §2

C[C@@H]1C(=O)O[C@H]2CC34[C@H]5C[C@@H](C(C)(C)C)C36[C@@H](OC(=O)[C@@H]6O)O[C@@]4(C(=O)O5)[C@]21O (stereo partly specified)
AUC of viability dose-response curve
Conditions	[1]	[2]	[3]
HPLM + 10% dialyzed FBS	465	447	431
RPMI 5 mM glucose + 10% FBS	467	462	460
RPMI 5 mM glucose + 10% dialyzed FBS	456	462	463

CN1CC[C@H]([C@@H](O)C1)C2=C(O)C=C(O)C3=C2O\C(=C/C3=O)C4=CC=CC=C4Cl
AUC of viability dose-response curve
Conditions	[1]	[2]	[3]
HPLM + 10% dialyzed FBS	281	306	265
RPMI 5 mM glucose + 10% FBS	276	301	288
RPMI 5 mM glucose + 10% dialyzed FBS	282	300	285

[4], HPLM + 10% dialyzed FBS
Conditions	cell viability [%]
0.000781 µM	104
0.00234 µM	121
0.00702 µM	134
0.0211 µM	132
0.0632 µM	128
0.19 µM	131
0.569 µM	23
1.71 µM	10.1
5.12 µM	6.69
15.4 µM	5.22
46.1 µM	6.07

C=CC(=O)Nc1cccc(Sc2nc(Nc3ccc(N4CCN(C)CC4)cc3)ncc2Cl)c1
[3]
Conditions	AUC of viability dose-response curve
HPLM + 10% dialyzed FBS	454
RPMI 5 mM glucose + 10% FBS	455
RPMI 5 mM glucose + 10% dialyzed FBS	456

cell viability [%]
Conditions	[4]	[5]	[6]
HPLM + 10% dialyzed FBS, 0.000781 µM	91.4	105	102
HPLM + 10% dialyzed FBS, 0.00234 µM	105	108	103
HPLM + 10% dialyzed FBS, 0.00702 µM	113	109	101
HPLM + 10% dialyzed FBS, 0.0211 µM	116	112	104
HPLM + 10% dialyzed FBS, 0.0632 µM	114	107	110
HPLM + 10% dialyzed FBS, 0.19 µM	116	121	109
HPLM + 10% dialyzed FBS, 0.569 µM	104	122	127
HPLM + 10% dialyzed FBS, 1.71 µM	86.4	118	114
HPLM + 10% dialyzed FBS, 5.12 µM	71.1	115	117
HPLM + 10% dialyzed FBS, 15.4 µM	86	118	98.5
HPLM + 10% dialyzed FBS, 46.1 µM	3.8	22.2	24.9
RPMI 5 mM glucose + 10% FBS, 0.000781 µM	53.5	95.7	97.3
RPMI 5 mM glucose + 10% FBS, 0.00234 µM	68.7	107	104
RPMI 5 mM glucose + 10% FBS, 0.00702 µM	81.6	113	121
RPMI 5 mM glucose + 10% FBS, 0.0211 µM	69.1	121	104
RPMI 5 mM glucose + 10% FBS, 0.0632 µM	82.7	116	101
RPMI 5 mM glucose + 10% FBS, 0.19 µM	81.2	122	120
RPMI 5 mM glucose + 10% FBS, 0.569 µM	91.7	120	109
RPMI 5 mM glucose + 10% FBS, 1.71 µM	60.6	115	116
RPMI 5 mM glucose + 10% FBS, 5.12 µM	41.3	124	113
RPMI 5 mM glucose + 10% FBS, 15.4 µM	65.9	117	119
RPMI 5 mM glucose + 10% FBS, 46.1 µM	2.06	19.2	8.7
RPMI 5 mM glucose + 10% dialyzed FBS, 0.000781 µM	88.8	104	95.4
RPMI 5 mM glucose + 10% dialyzed FBS, 0.00234 µM	98.2	115	101
RPMI 5 mM glucose + 10% dialyzed FBS, 0.00702 µM	97.6	110	97.1
RPMI 5 mM glucose + 10% dialyzed FBS, 0.0211 µM	99.9	114	92.1
RPMI 5 mM glucose + 10% dialyzed FBS, 0.0632 µM	118	118	112
RPMI 5 mM glucose + 10% dialyzed FBS, 0.19 µM	114	120	93
RPMI 5 mM glucose + 10% dialyzed FBS, 0.569 µM	72.9	123	98.2
RPMI 5 mM glucose + 10% dialyzed FBS, 1.71 µM	80.9	124	97.5
RPMI 5 mM glucose + 10% dialyzed FBS, 5.12 µM	57.3	123	107
RPMI 5 mM glucose + 10% dialyzed FBS, 15.4 µM	58.5	126	107
RPMI 5 mM glucose + 10% dialyzed FBS, 46.1 µM	2.75	26.3	11.6

CC1(COc2ccc3c(c2)ncn3-c2ccc3cccc(N4CCC(N)CC4)c3n2)COC1
AUC of viability dose-response curve
Conditions	HPLM + 10% dialyzed FBS	RPMI 5 mM glucose + 10% FBS	RPMI 5 mM glucose + 10% dialyzed FBS
[1]	254	216	240
[2]	392	403	418

cell viability [%], [4]
Conditions	HPLM + 10% dialyzed FBS	RPMI 5 mM glucose + 10% FBS	RPMI 5 mM glucose + 10% dialyzed FBS
0.000781 µM	91.2	114	99.8
0.00234 µM	96.7	101	99.7
0.00702 µM	81.3	94	73.6
0.0211 µM	62.7	64.9	59.6
0.0632 µM	38.9	28.8	33.8
0.19 µM	56.3	49.8	51.1
0.569 µM	54.4	49.5	47.4
1.71 µM	44.1	40.5	48.2
5.12 µM	26.4	18.1	20
15.4 µM	28.7	16.4	20.2
46.1 µM	6.33	5.26	6.44

COc1cc2nc(N3CCN(C(=O)C4COc5ccccc5O4)CC3)nc(N)c2cc1OC (stereo unspecified)
AUC of viability dose-response curve
Conditions	[1]	[2]	[3]
HPLM + 10% dialyzed FBS	469	457	439
RPMI 5 mM glucose + 10% FBS	450	461	452
RPMI 5 mM glucose + 10% dialyzed FBS	447	467	456

cell viability [%], HPLM + 10% dialyzed FBS
Conditions	[4]	[5]
0.000781 µM	123	122
0.00234 µM	125	125
0.00702 µM	115	137
0.0211 µM	126	127
0.0632 µM	122	129
0.19 µM	128	132
0.569 µM	113	132
1.71 µM	132	131
5.12 µM	120	115
15.4 µM	119	112
46.1 µM	91.4	82.3

Cc1cn2cc(C(=O)N(C)CCO)cc(N[C@@H]3CCOc4cccc(C)c43)c2n1
AUC of viability dose-response curve
Conditions	HPLM + 10% dialyzed FBS	RPMI 5 mM glucose + 10% FBS	RPMI 5 mM glucose + 10% dialyzed FBS
[2]	465	470	469
[3]	462	422	443

cell viability [%]
Conditions	[4]	[5]	[6]
HPLM + 10% dialyzed FBS, 0.000781 µM	90.6	107	93.8
HPLM + 10% dialyzed FBS, 0.00234 µM	107	106	105
HPLM + 10% dialyzed FBS, 0.00702 µM	106	109	112
HPLM + 10% dialyzed FBS, 0.0211 µM	101	112	118
HPLM + 10% dialyzed FBS, 0.0632 µM	105	111	122
HPLM + 10% dialyzed FBS, 0.19 µM	107	119	115
HPLM + 10% dialyzed FBS, 0.569 µM	113	118	110
HPLM + 10% dialyzed FBS, 1.71 µM	114	115	131
HPLM + 10% dialyzed FBS, 5.12 µM	109	119	119
HPLM + 10% dialyzed FBS, 15.4 µM	113	110	108
HPLM + 10% dialyzed FBS, 46.1 µM	104	117	130
RPMI 5 mM glucose + 10% FBS, 0.000781 µM	84.3	105	96.2
RPMI 5 mM glucose + 10% FBS, 0.00234 µM	88.8	119	108
RPMI 5 mM glucose + 10% FBS, 0.00702 µM	75	107	107
RPMI 5 mM glucose + 10% FBS, 0.0211 µM	87.1	113	104
RPMI 5 mM glucose + 10% FBS, 0.0632 µM	80.7	118	105
RPMI 5 mM glucose + 10% FBS, 0.19 µM	82.9	117	106
RPMI 5 mM glucose + 10% FBS, 0.569 µM	95.8	115	113
RPMI 5 mM glucose + 10% FBS, 1.71 µM	81.1	123	111
RPMI 5 mM glucose + 10% FBS, 5.12 µM	87.2	115	122
RPMI 5 mM glucose + 10% FBS, 15.4 µM	67.6	105	117
RPMI 5 mM glucose + 10% FBS, 46.1 µM	81.5	114	129
RPMI 5 mM glucose + 10% dialyzed FBS, 0.000781 µM	88.9	106	105
RPMI 5 mM glucose + 10% dialyzed FBS, 0.00234 µM	93.7	109	104
RPMI 5 mM glucose + 10% dialyzed FBS, 0.00702 µM	90	105	114
RPMI 5 mM glucose + 10% dialyzed FBS, 0.0211 µM	110	116	130
RPMI 5 mM glucose + 10% dialyzed FBS, 0.0632 µM	95.3	118	114
RPMI 5 mM glucose + 10% dialyzed FBS, 0.19 µM	113	114	110
RPMI 5 mM glucose + 10% dialyzed FBS, 0.569 µM	94.1	118	122
RPMI 5 mM glucose + 10% dialyzed FBS, 1.71 µM	106	115	117
RPMI 5 mM glucose + 10% dialyzed FBS, 5.12 µM	108	110	115
RPMI 5 mM glucose + 10% dialyzed FBS, 15.4 µM	95.6	118	128
RPMI 5 mM glucose + 10% dialyzed FBS, 46.1 µM	94.9	109	129
